Here are results for 13 molecules from patent US10222368B2 (priority 2012, dated 2019).

Assay [1] addresses FLNA pentapeptide VAKGL (SEQ ID NO: 1) (Homo sapiens, UniProt P21333). In words: FITC-NLX-based FLNA screening assay. The assay is classed as binding. The conditions noted are these: for inhibition at 0.0001 µM: 0.1 nM compound; for inhibition at 0.0001 µM / inhibition at 0.001 µM / inhibition at 0.01 µM / inhibition at 0.1 µM / inhibition at 1 µM: 100 nM frozen-stored FITC-NLX, average of two runs, read-out: Percent inhibition of FITC-NLX binding, preliminary study; for inhibition at 0.001 µM: 1 nM compound; for inhibition at 0.01 µM: 10 nM compound; for inhibition at 0.1 µM: 100 nM compound; for inhibition at 1 µM: 1 μM compound; for Percent Binding Inhibition (FITC-NLX binding to Bn-VAKGL): 10 nM FITC-NLX.

The next assay deals with T1, mu opiate receptor (MOR) (Rattus norvegicus, UniProt P33535).
T1 construct: from tissue; host or cells: striatal tissue (membrane preparation)
T1 sequence (P33535 whole entry): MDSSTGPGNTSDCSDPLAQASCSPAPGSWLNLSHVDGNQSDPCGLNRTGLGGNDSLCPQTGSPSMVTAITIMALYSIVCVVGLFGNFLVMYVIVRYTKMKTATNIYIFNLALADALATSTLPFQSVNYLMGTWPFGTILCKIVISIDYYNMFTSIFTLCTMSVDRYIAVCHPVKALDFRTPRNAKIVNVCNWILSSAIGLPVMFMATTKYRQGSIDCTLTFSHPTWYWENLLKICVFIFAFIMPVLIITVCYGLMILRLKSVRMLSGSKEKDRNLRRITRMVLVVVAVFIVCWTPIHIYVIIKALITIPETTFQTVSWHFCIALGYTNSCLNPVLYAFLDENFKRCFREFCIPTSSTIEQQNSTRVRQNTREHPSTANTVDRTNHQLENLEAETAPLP
In words: MOR agonist activity using [35S]GTPγS binding assay in striatal membranes. The conditions noted are these: for MOR agonist activity ([35S]GTPγS binding to Gαo), preliminary study: average of two runs; for MOR agonist activity, [35S]GTPγS binding, FLNA-binding compound as agonist at 0.1 μM: 0.1 μM compound; for MOR agonist activity, [35S]GTPγS binding, FLNA-binding compound as agonist at 0.1 μM / MOR agonist activity, [35S]GTPγS binding, 1 μM + BFNA / MOR agonist activity, [35S]GTPγS binding, FLNA-binding compound as agonist at 1 μM: striatal membranes; for MOR agonist activity, [35S]GTPγS binding, FLNA-binding compound as agonist at 0.1 μM / MOR agonist activity, [35S]GTPγS binding, FLNA-binding compound as agonist at 1 μM: Series C-2; for MOR agonist activity, [35S]GTPγS binding, 1 μM + BFNA: 1 μM compound + 1 μM β-FNA (MOR antagonist); for MOR agonist activity, [35S]GTPγS binding, FLNA-binding compound as agonist at 1 μM: 1 μM compound. The assay is classed as biochemical. Here is the method:
To assess the mu opiate receptor (MOR) agonist activity of positive compounds from the FLNA screening, compounds were tested in a [^35S]GTPγS binding assay using striatal membranes. […] This assay measures a functional consequence of receptor occupancy at one of the earliest receptor-mediated events. The assay permits for traditional pharmacological parameters of potency, efficacy and antagonist affinity, with the advantage that agonist measures are not subjected to amplification or other modulation that may occur when analyzing parameters further downstream of the receptor.
Thus, striatal tissue was homogenized in 10 volumes of ice cold 25 mM HEPES buffer, pH 7.4, which contained 1 mM EGTA, 100 mM sucrose, 50 μg/ml leupeptin, 0.04 mM PMSF, 2 μg/ml soybean trypsin inhibitor and 0.2% 2-mercaptoethanol. The homogenates were centrifuged at 800×g for 5 minutes and the supernatants were centrifuged at 49,000×g for 20 minutes.
The resultant striatal membrane preparation (200 μg) was admixed and maintained (incubated) at 30° C. for 5 minutes in reaction buffer as above that additionally contained 1 mM MgCl2 and 0.5 nM [^35S]GTPγS (0.1 μCi/assay, PerkinElmer Life and Analytical Sciences) in a total volume of 250 μl and continued for 5 minutes in the absence or presence of 0.1-10 μM of an assayed compound of interest. The reaction was terminated by dilution with 750 μl of ice-cold reaction buffer that contained 20 mM MgCl2 and 1 mM EGTA and immediate centrifugation at 16,000×g for 5 minutes.
Normal rabbit serum (1 μl) was added to 1 ml of lysate and incubated at 25° C. for 30 minutes. Nonspecific immune complexes were removed by incubation with 25 μl of protein A/G-conjugated agarose beads at 25° C. for 30 minutes followed by centrifugation at 5,000×g at 4° C. for 5 minutes. The supernatant was divided and separately incubated at 25° C. for 30 minutes with antibodies raised against Gαo proteins (1:1,000 dilutions).
The immunocomplexes so formed were collected by incubation at 25° C. for 30 minutes with 40 μl of agarose-conjugated protein A/G beads and centrifugation at 5,000×g at 4° C. for 5 minutes. The pellet was washed and suspended in buffer containing 50 mM Tris-HCl, pH 8.0, and 1% NP-40. The radioactivity in the suspension was determined by liquid scintillation spectrometry.
A general note: GTPγS resists hydrolysis and so accumulates on activated G proteins.

Regarding `CN1CC[C@]23c4c5ccc(O)c4O[C@H]2[C@@H](O)C=C[C@H]3[C@H]1C5` [morphine, reference compound], the “Binding to the FLNA pentapeptide of SEQ ID NO: 1 (in words)” value (“Binding … of SEQ ID NO: 1 (in words)” for short) in assay [1] is “do not bind”.
As usually defined, the inhibition is how much of the control response was suppressed. Regarding `O=S(=O)(c1ccc(OC(F)(F)F)cc1)N1CCOC12CCN(CC1CC1)CC2` [Compound 4], at mu opiate receptor (MOR) (0.1 μM compound as agonist), the “MOR agonist activity ([35S]GTPγS binding to Gαo), preliminary study” value (shortened to “MOR agonist activity … preliminary study”) stood at 133.9%. Besides, the “MOR agonist activity … preliminary study” value at mu opiate receptor (MOR) (1 μM + βNFA) is recorded as 49.5%. The “MOR agonist activity … preliminary study” value on mu opiate receptor (MOR) (1 μM compound as agonist) was determined as 165.2%. Moreover, in assay [1], the inhibition at 0.0001 µM is 18.8%, the inhibition at 0.001 µM is 21.3%, the inhibition at 0.01 µM amounted to 17.9% and the inhibition at 0.1 µM was found to be 28.8%. In addition, the inhibition at 1 µM in assay [1] came to 42.9%.
On to `C=CCN1CCC2(CC1)OCCN2S(=O)(=O)c1ccc(C)cc1` [Compound 10], for which, on mu opiate receptor (MOR) (0.1 μM compound as agonist), the “MOR agonist activity … preliminary study” value is given as 163.1%. The “MOR agonist activity … preliminary study” value at mu opiate receptor (MOR) (1 μM + βNFA) is listed as 60.4%. For the same molecule, the “MOR agonist activity … preliminary study” value at mu opiate receptor (MOR) (1 μM compound as agonist) came out at 191.8%. In addition, in assay [1], the inhibition at 0.0001 µM came out at 27.5%, the inhibition at 0.001 µM came out at 27.3%, the inhibition at 0.01 µM was found to be 26.6% and the inhibition at 0.1 µM was determined as 27.3%. In assay [1], the inhibition at 1 µM is 34.5%.
As to Nalbuphine [reference compound], in assay [1], the “Binding … of SEQ ID NO: 1 (in words)” value is on record as “bind well”.
Regarding `Cc1ccc(S(=O)(=O)N2CCOC23CCN(CC2CCC2)CC3)cc1` [Compound 9], at mu opiate receptor (MOR) (0.1 μM compound as agonist), the “MOR agonist activity … preliminary study” value is 156.6%. The “MOR agonist activity … preliminary study” value at mu opiate receptor (MOR) (1 μM + βNFA) is 56.6%. Also, at mu opiate receptor (MOR) (1 μM compound as agonist), the “MOR agonist activity … preliminary study” value stood at 197.2%. For the same molecule, in assay [1], the inhibition at 0.0001 µM turned out to be 22.5%, the inhibition at 0.001 µM came to 24.8%, the inhibition at 0.01 µM turned out to be 27.7% and the inhibition at 0.1 µM was determined as 35.3%. Besides, the inhibition at 1 µM in assay [1] amounted to 49.6%.
For `CO[C@]12CC[C@@]3(C[C@@H]1C(C)(O)C(C)(C)C)[C@H]1Cc4ccc(O)c5c4[C@@]3(CCN1CC1CC1)[C@H]2O5` (stereo partly drawn) [Buprenorphine, reference compound], in assay [1], the “Binding … of SEQ ID NO: 1 (in words)” value is reported as “bind well”.
Turning to Nalorphine [reference compound], the “Binding … of SEQ ID NO: 1 (in words)” value in assay [1] is “bind well”.
Take `O=C1CNC2(CCN(S(=O)(=O)c3ccc(O)cc3)CC2)N1Cc1ccccc1` [Compound C0148M]: the “Percent Binding Inhibition (FITC-NLX binding to Bn-VAKGL)” value in assay [1] (0.01 μM FLNA-binding compound) turned out to be 46.2%; in assay [1] (0.1 μM FLNA-binding compound), 52.0%; in assay [1] (1 μM FLNA-binding compound) it was 57.0%.
On to `COc1ccc(S(=O)(=O)N2CCOC23CCN(C(C)C)CC3)cc1` [Compound C0133M], for which, on mu opiate receptor (MOR), the “MOR agonist activity, [35S]GTPγS binding, FLNA-binding compound as agonist at 0.1 μM” value is given as 139.4%; the “MOR agonist activity, [35S]GTPγS binding, 1 μM + BFNA” value came out at 72.4%; the “MOR agonist activity, [35S]GTPγS binding, FLNA-binding compound as agonist at 1 μM” value amounted to 214.8%.
Taken in the same sequence, the figures for `COc1ccc(S(=O)(=O)N2CCOC23CCN(CC2CC2)CC3)cc1` [Compound C0090M] were 237.0%, 41.0% and 341.0%.
The corresponding values for `CC(=O)c1ccc(S(=O)(=O)N2CCOC23CCN(CC(=O)O)CC3)cc1` [Compound C0100M] are 173.6%, 195.6% and 245.9%.
The corresponding values for `CC(=O)c1ccc(S(=O)(=O)N2CCOC23CCN(C)CC3)cc1` [Compound C0093M] are 140.0%, 44.0% and 211.8%.
Regarding `CC(C)c1ccc(S(=O)(=O)N2CCC3(CC2)OCCN3S(=O)(=O)c2ccc(C(C)C)cc2)cc1` [Compound C0007], the “% DAMGO (0.1 μM)” value on mu opiate receptor (MOR) (Series C-1, 0.1 μM compound relative to DAMGO (0.1 μM)) was determined as 46.0%. The “% DAMGO + BFNA” value at mu opiate receptor (MOR) (Series C-1, 1 μM compound + BFNA relative to DAMGO + BFNA) turned out to be 17.0%.
